Source: US20250375435A1, “COMPOUNDS FOR TREATING INFECTIONS” (Ohio State Innovation Foundation, priority 2022, published 2025)

System: Salmonella
Assay: Single-infection mouse model with probiotic strain added 1:1 to wild-type or fraB mutant Salmonella
Assay type: in vivo, streptomycin-treated Swiss Webster mice
Conditions: presence or absence of probiotic or exogenous F-Asn, day 4 post-infection
Method: A quadruple mutant designated ASD203 (ASPII ASPI2 AfraRBDAE4 AasnB80:kan) was evaluated for use as a probiotic in combination with FraB inhibitors. This is a strain of Salmonella lacking SPI1 and SPI2 so that it cannot induce inflammation. Additionally, this strain cannot consume F-Asn due to a deletion of the entire fra island (fraR-fraBDAE). The ansB gene was also deleted as this asparaginase is capable of converting F-Asn to F-Asp. The addition of this probiotic should provide an inflammation resistant competitor to Salmonella for all nutrients except F-Asn, effectively forcing the use of F-Asn as a nutrient. […]
Mouse modeling experiments—For competition experiments, a 1:1 mixture of two different bacterial strains were inoculated intragastrically (i.g.) and then recovered from ceca to determine the competitive index (CI) of the two strains. […] CI was determined by plating on media selective for WT (LB cam) and mutant (LB kan). For the competitions with the fraB F214A mutant which is not marked, CI was determined by screening 52 individual colonies recovered from XLD plates for antibiotic resistance by patching on LB plates containing the appropriate antibiotic, thus the limit of detection on these experiments is less than two logs. […] CFU enumeration was determined by plating on media selective for WT (LB cam) and the mutant (LB kan). […]

## fructose-asparagine [F-Asn]
  numbers of fraB mutant bacteria recovered: not significantly different
